Data set [1] is described as follows: Pharmacokinetics of scoparone, geniposide and rhein in rat plasma after oral administration of the herbal formula Yin-Chen-Hao-Tang (UPLC-MS/MS). In kind it is in vivo, Male Sprague Dawley rats. The procedure: All samples were subjected to chromatographic separation using the Shimadzu UPLC system with an Acquity UPLC BEH C18 column (1.7 µm, 100 mm × 2.1 mm) (Waters Corp., Milford, MA, USA). Samples were maintained in the autosampler at 4 °C with […] of each being injected into the column. Chromatographic separations were conducted at 35 °C with a flow rate of 0.2 mL/min. The mobile phase was 1 mM ammonium acetate with 0.1% formic acid and methanol. A gradient elution was used from 20% methanol (0–2 min) to 95% methanol (3–11 min) then decreased to 20% methanol at 12 min. The overall run time is 20 mins. MRM transitions were scoparone (m/z 207 → 151), geniposide (m/z 406 → 227), rhein (m/z 283 → 240) and carbamazepine (m/z 237 → 194) for quantitation. Data acquisition was controlled with LabSolutions v. 5.60 SP1 software (Shimadzu, Kyoto, Japan).
Sample preparations were made using the protein precipitation process. A forty-five-microliter aliquot of blank plasma sample was mixed with 5 µL of internal standard solution and 100 μL […] was added. The mixture was vortexed for 5 min and centrifuged at 16,000× g for 10 min at 4 °C. The supernatant layer was then collected and transferred through a 0.22 μm membrane filter (0.22 μm, Millex-GV, Millipore, USA) to 1.5 mL autosampler vials. Finally, 20 µL was used for injection into the UPLC-MS/MS system.
Male Sprague Dawley rats weighing 230 ± 30 g were used for the following pharmacokinetic (PK) study. The rats were housed under controlled environmental conditions with free access to food and drinking water up to 12 h prior to experiments. The experimental protocol was approved by the Institutional Animal Ethics Committee of National Yang-Ming University, Taipei, Taiwan (IACUC1070112). All rats divided into two experimental groups were intragastrically fed pharmaceutical herbal product formula Yin-Chen-Hao Tang suspended in normal saline at 1 g/kg or 3 g/kg corresponding to the clinical daily dose of 9.7 g and 29.2 g in a 60 kg adult. Blood samples were collected via a polyethylene tubing (PE-50) implanted priory in the jugular vein of each rat in a heparin-rinsed vial. An aliquot of 100–120 µL blood was collected at time intervals of 0, 5, 15, 30, 60, 90, 120, 180, 240, 300 and 360 min after oral administration of the herbal product. Each group contained a total of six rats to diminish individual variation. All blood samples were immediately centrifuged as mentioned above (16,000× g for 10 min at 4 °C) and stored at −20 °C until analysis.
The pharmacokinetic parameters were calculated using the pharmacokinetic software WinNonlin Standard Edition, version 1.1 (Scientific Consulting Inc., Apex, NC, USA). The area under the plasma concentration-time curve (AUC), terminal elimination half-life (t1/2) and oral clearance (CL) were estimated using non-compartmental analysis. The maximum plasma concentration (Cmax) and time to reach the maximum concentration (Tmax) was directly applied from the plasma concentration-time curve. Pharmacokinetic parameters of each individual data set were calculated using WinNonlin Standard Edition, version 1.1 (Pharsight Corp., Mountain View, CA, USA). Statistics and graphics were performed with SPSS version 18.0 (SPSS Inc., Chicago, IL, USA) and SigmaPlot 10.0 software (Systat Software Inc., San Jose, CA, USA). All values were expressed as the mean ± standard deviation (S.D.).

On the set-up of data set [2]: method as in PMID 21945452. Conditions: oral administration of 50–200 mg of rhein, healthy Chinese subjects; cited from earlier work.
The mark [3] stands for this setting: rat plasma, YCHT 3 g/kg p.o., mean ± S.D., n = 6.
The mark [4] stands for this setting: rat plasma, YCHT 3 g/kg vs 1 g/kg p.o.
Where [5] appears, read: male, Sprague Dawley, rat, in vivo.
[6] abbreviates: male, Sprague Dawley, rat, in vivo, po, 1 g/kg.
The mark [7] stands for this setting: male, Sprague Dawley, rat, in vivo, po, 3 g/kg.

Like-named read-outs stand apart in the source and are kept apart here.

Regarding `COC(=O)C1=CO[C@@H](O[C@@H]2O[C@H](CO)[C@@H](O)[C@H](O)[C@H]2O)[C@@H]2C(CO)=CC[C@H]12` [Geniposide, geniposide], the AUC in data set [1] (male, Sprague Dawley, in vivo, po, rat plasma, YCHT 1 g/kg p.o., mean ± S.D., n = 6, read-out: AUC (converted)) is 313 ng·h/mL; in data set [1] (male, Sprague Dawley, in vivo, po, rat plasma, YCHT 3 g/kg p.o., mean ± S.D., n = 6, read-out: AUC (converted)), 1580 ng·h/mL. Further, the Cmax turned out to be 145 ± 251 ng/mL in data set [1] (male, Sprague Dawley, in vivo, po, rat plasma, YCHT 1 g/kg p.o., mean ± S.D., n = 6, read-out: Cmax) and 604 ± 256 ng/mL in data set [1] (male, Sprague Dawley, in vivo, po, rat plasma, YCHT 3 g/kg p.o., mean ± S.D., n = 6, read-out: Cmax). Also, the MRT in data set [1] (male, Sprague Dawley, in vivo, po, rat plasma, YCHT 1 g/kg p.o., mean ± S.D., n = 6, read-out: MRT (mean retention time) (converted)) was 1.92 h; in data set [1] (male, Sprague Dawley, in vivo, po, rat plasma, YCHT 3 g/kg p.o., mean ± S.D., n = 6, read-out: MRT (mean retention time) (converted)), 2.53 h. The Tmax is 1.35 h in data set [1] (male, Sprague Dawley, in vivo, po, rat plasma, YCHT 1 g/kg p.o., mean ± S.D., n = 6, read-out: Tmax (converted)) and 1.35 h in data set [1] (male, Sprague Dawley, in vivo, po, rat plasma, YCHT 3 g/kg p.o., mean ± S.D., n = 6, read-out: Tmax (converted)). Besides, the half-life in data set [1] (male, Sprague Dawley, in vivo, po, rat plasma, YCHT 1 g/kg p.o., mean ± S.D., n = 6, read-out: t1/2 (elimination half-life)) came out at 1.33 ± 0.3 h; in data set [1] (male, Sprague Dawley, in vivo, po, rat plasma, YCHT 3 g/kg p.o., mean ± S.D., n = 6, read-out: t1/2 (elimination half-life)) it was 1.43 ± 0.483 h. In data set [1] (male, Sprague Dawley, rat, in vivo, typical plasma sample collected 180 min after oral YCHT 3 g/kg), this molecule came in with a concentration at 180 min of 287 ng/mL. The “CL (clearance)” value is 1403 ± 1018 mL/min/kg in data set [1] (rat plasma, YCHT 1 g/kg p.o., mean ± S.D., n = 6) and 259.8 ± 109.2 mL/min/kg in data set [1] (setting [3]). The same molecule showed an AUC/dose in data set [1] (setting [3]) of 31.63 ± 10.76. The “increase of AUC in the 3 g/kg group compared to the 1 g/kg group” value (shortened to “increase of AUC in the 3 g/kg group”) in data set [1] (setting [4]) is 5.1 fold. In addition, the “ratio of AUC adjusted to the administered dose, high-dose group vs low-dose group” value (shortened to “ratio of AUC adjusted”) in data set [1] (setting [4]) is given as 1.7 times.

Consider `O=C(O)c1cc(O)c2c(c1)C(=O)c1cccc(O)c1C2=O` [Rhein, rhein], for which, in data set [1] (setting [5]), the “increase of AUC in the 3 g/kg group” value turned out to be 6.8 fold and the “ratio of AUC adjusted” value is recorded as 2.3 times. Besides, in data set [1] (setting [6]), the exposure (AUC) is 485 ng·h/mL, the “CL (clearance)” value turned out to be 3.710 ± 1.366 mL/min/kg, the Cmax was found to be 311 ± 166 ng/mL and the MRT is 1.77 h. Moreover, in data set [1] (setting [6]), the time of peak concentration (Tmax) was 0.2 h and the half-life was 2.02 ± 0.767 h. Besides, in data set [1] (setting [7]), the exposure (AUC) was 3310 ng·h/mL, the AUC/dose is reported as 66.18 ± 17.09, the “CL (clearance)” value amounted to 1.483 ± 0.357 mL/min/kg and the peak concentration (Cmax) came out at 1660 ± 805 ng/mL. For the same molecule, in data set [1] (setting [7]), the MRT was 1.93 h, the time of peak concentration (Tmax) was 0.383 h and the half-life was determined as 1.73 ± 1.15 h. The “pharmacokinetics, dose linearity” value in data set [2] was “Linear pharmacokinetics”.

On to `COc1cc2ccc(=O)oc2cc1OC` [Scoparone, 6,7-dimethoxycoumarin], for which, in data set [1] (setting [5]), the “increase of AUC in the 3 g/kg group” value was 7.5 fold and the “ratio of AUC adjusted” value turned out to be 2.5 times. Also, in data set [1] (setting [6]), the AUC is 15.9 ng·h/mL, the “CL (clearance)” value was 394.7 ± 209.4 mL/min/kg, the concentration peaked (Cmax) at 18 ± 12 ng/mL and the MRT was 0.317 h. Also, in data set [1] (setting [6]), the Tmax is 0.233 h and the half-life came to 0.433 ± 0.0833 h. Further, in data set [1] (setting [7]), the AUC was 119 ng·h/mL, the AUC/dose was found to be 2.374 ± 1.126, the “CL (clearance)” value was determined as 131.5 ± 123.6 mL/min/kg and the Cmax was 132 ± 137 ng/mL. Moreover, in data set [1] (setting [7]), the mean residence time (MRT) was 0.85 h, the Tmax was 0.35 h and the half-life came to 1.15 ± 0.917 h.

Values taken from publication PMC6222633, “Preclinical Pharmacokinetics of Scoparone, Geniposide and Rhein in an Herbal Medicine Using a Validated LC-MS/MS Method” (Molecules : A Journal of Synthetic Chemistry and Natural …, 2018).
